Measured values published in patent US9695133B2, “Quinazolinone-based oncogenic-RAS-selective lethal compounds and their use” (THE TRUSTEES OF COLUMBIA UNIVERSITY IN THE CITY OF NEW YORK, priority 2012, dated 2017).

Tested on: HT-1080 cells
Assay: Metabolite profiling (LC-MS/MS) upon erastin treatment
Type: cell-based, human
Conditions: 5 μg/mL erastin 5 h
Description: 2 million HT-1080 cells were seeded in 10 cm culture dishes. […] 4 mL of cold 80% methanol was added to the cell monolayer to extract polar metabolites using a cell scraper. The cell lysate/methanol mixture was transferred to a 15 mL tube and centrifuged at 2,000×g at 4° C. for 10 minutes to pellet debris and proteins. The supernatant was transferred to a new tube and stored at −80° C. for liquid chromatography-mass spectrometry/mass spectrometry (LC-MS/MS) analysis. For lipid extract preparation, 3 mL of cold 100% isopropanol was added to the cell monolayer to scrape out cells. The resulting cell lysate/isopropanol mixture was transferred to a new 15 mL tube and centrifuged at 2,000×g at 4° C. for 10 minutes. The cleared supernatant was transferred to a new tube and stored at −20° C. for LC-MS/MS analysis.
The metabolite extract was subjected to LC-MS/MS analysis to determine the quantity of each metabolite in each sample.

CCOc1ccccc1-n1c(C(C)N2CCN(C(=O)COc3ccc(Cl)cc3)CC2)nc2ccccc2c1=O (stereo not drawn) [erastin]
G6P Erastin/DMSO: 1.134
G6P log2 (Erastin/DMSO): 0.181
GABA Erastin/DMSO: 1.173
GABA log2 (Erastin/DMSO): 0.2297
GDP Erastin/DMSO: 0.8497
GDP log2 (Erastin/DMSO): −0.235
GMP Erastin/DMSO: 1.066
GMP log2 (Erastin/DMSO): 0.09204
IMP Erastin/DMSO: 1.065
IMP log2 (Erastin/DMSO): 0.09035
N-carbomoyl-beta-alanine Erastin/DMSO: 0.7958
N-carbomoyl-beta-alanine log2 (Erastin/DMSO): −0.3296
NAD Erastin/DMSO: 0.9157
NAD log2 (Erastin/DMSO): −0.127
NADH Erastin/DMSO: 0.8051
NADH log2 (Erastin/DMSO): −0.3128
NMMA Erastin/DMSO: 0.9886
NMMA log2 (Erastin/DMSO): −0.01661
OH-phenylpyruvate Erastin/DMSO: 0.8442
OH-phenylpyruvate log2 (Erastin/DMSO): −0.2443
PEP Erastin/DMSO: 1.147
PEP log2 (Erastin/DMSO): 0.1975
SDMA Erastin/DMSO: 0.9505
SDMA log2 (Erastin/DMSO): −0.07329
UDP Erastin/DMSO: 1.002
UDP log2 (Erastin/DMSO): 0.002894
UDP-galactose/UDP-glucose Erastin/DMSO: 0.9003
UDP-galactose/UDP-glucose log2 (Erastin/DMSO): −0.1516
UDP-glucuronate Erastin/DMSO: 0.9339
UDP-glucuronate log2 (Erastin/DMSO): −0.09865
UMP Erastin/DMSO: 1.049
UMP log2 (Erastin/DMSO): 0.06891
XMP Erastin/DMSO: 0.8599
XMP log2 (Erastin/DMSO): −0.2178
acetylcholine Erastin/DMSO: 0.8307
acetylcholine log2 (Erastin/DMSO): −0.2676
aconitate Erastin/DMSO: 1.036
aconitate log2 (Erastin/DMSO): 0.05158
adenine Erastin/DMSO: 1.254
adenine log2 (Erastin/DMSO): 0.3261
adenosine Erastin/DMSO: 1.376
adenosine log2 (Erastin/DMSO): 0.4605
adipate Erastin/DMSO: 1.091
adipate log2 (Erastin/DMSO): 0.1256
alanine Erastin/DMSO: 1.061
alanine log2 (Erastin/DMSO): 0.0857
allantoin Erastin/DMSO: 0.9512
allantoin log2 (Erastin/DMSO): −0.07213
alpha-glycerophosphate Erastin/DMSO: 0.7556
alpha-glycerophosphate log2 (Erastin/DMSO): −0.4043
alpha-glycerophosphocholine Erastin/DMSO: 0.2194
alpha-glycerophosphocholine log2 (Erastin/DMSO): −2.188
alpha-ketoglutarate Erastin/DMSO: 0.9867
alpha-ketoglutarate log2 (Erastin/DMSO): −0.01926
arginine Erastin/DMSO: 0.9866
arginine log2 (Erastin/DMSO): −0.01943
ascorbate Erastin/DMSO: 1.196
ascorbate log2 (Erastin/DMSO): 0.2586
asparagine Erastin/DMSO: 1.069
asparagine log2 (Erastin/DMSO): 0.09662
aspartate Erastin/DMSO: 1.017
aspartate log2 (Erastin/DMSO): 0.02452
betaine Erastin/DMSO: 0.9528
betaine log2 (Erastin/DMSO): −0.06976
cAMP Erastin/DMSO: 1.266
cAMP log2 (Erastin/DMSO): 0.3404
carnitine Erastin/DMSO: 0.802
carnitine log2 (Erastin/DMSO): −0.3183
carnosine Erastin/DMSO: 0.9657
carnosine log2 (Erastin/DMSO): −0.0503
choline Erastin/DMSO: 0.8139
choline log2 (Erastin/DMSO): −0.2971
cis/trans hydroxyproline Erastin/DMSO: 1.099
cis/trans hydroxyproline log2 (Erastin/DMSO): 0.1366
citrate Erastin/DMSO: 0.974
citrate log2 (Erastin/DMSO): −0.03805
citrulline Erastin/DMSO: 1.036
citrulline log2 (Erastin/DMSO): 0.05057
cotinine Erastin/DMSO: 0.9037
cotinine log2 (Erastin/DMSO): −0.146
creatine Erastin/DMSO: 0.8675
creatine log2 (Erastin/DMSO): −0.205
creatinine Erastin/DMSO: 0.972
creatinine log2 (Erastin/DMSO): −0.04091
cystamine Erastin/DMSO: 1.09
cystamine log2 (Erastin/DMSO): 0.1248
cystathionine Erastin/DMSO: 1.263
cystathionine log2 (Erastin/DMSO): 0.3368
cytidine Erastin/DMSO: 6.079
cytidine log2 (Erastin/DMSO): 2.604
cytosine Erastin/DMSO: 0.8863
cytosine log2 (Erastin/DMSO): −0.1741
dCMP Erastin/DMSO: 0.9184
dCMP log2 (Erastin/DMSO): −0.1228
dGMP Erastin/DMSO: 1.052
dGMP log2 (Erastin/DMSO): 0.07275
dTMP Erastin/DMSO: 0.6985
dTMP log2 (Erastin/DMSO): −0.5178
dUMP Erastin/DMSO: 0.6787
dUMP log2 (Erastin/DMSO): −0.5592
dimethylglycine Erastin/DMSO: 0.9338
dimethylglycine log2 (Erastin/DMSO): −0.09885
folate Erastin/DMSO: 1.032
folate log2 (Erastin/DMSO): 0.04552
fumarate Erastin/DMSO: 0.9822
fumarate log2 (Erastin/DMSO): −0.02598
glucose Erastin/DMSO: 0.9717
glucose log2 (Erastin/DMSO): −0.04147
glucose/fructose/galactose Erastin/DMSO: 1.011
glucose/fructose/galactose log2 (Erastin/DMSO): 0.01526
glucuronate Erastin/DMSO: 0.61
glucuronate log2 (Erastin/DMSO): −0.7132
glutamate Erastin/DMSO: 1.019
glutamate log2 (Erastin/DMSO): 0.02762
glutamine Erastin/DMSO: 1.015
glutamine log2 (Erastin/DMSO): 0.02096
glutathione oxidized Erastin/DMSO: 0.3235
glutathione oxidized log2 (Erastin/DMSO): −1.628
glutathione reduced Erastin/DMSO: 0.007019
glutathione reduced log2 (Erastin/DMSO): −7.154
glyceraldehyde-3-phosphate Erastin/DMSO: 1.192
glyceraldehyde-3-phosphate log2 (Erastin/DMSO): 0.2529
glycerol Erastin/DMSO: 1.058
glycerol log2 (Erastin/DMSO): 0.08176
glycine Erastin/DMSO: 0.9723
glycine log2 (Erastin/DMSO): −0.04055
glycochenodeoxycholate Erastin/DMSO: 1.067
glycochenodeoxycholate log2 (Erastin/DMSO): 0.09335
glycocholate Erastin/DMSO: 0.9975
glycocholate log2 (Erastin/DMSO): −0.003654
glycodeoxycholate Erastin/DMSO: 1.054
glycodeoxycholate log2 (Erastin/DMSO): 0.07552
